Reference: patent publication US7560568B2, “Thiazole compounds” (SmithKline Beecham Corporation, priority 2004, dated 2009)
Where two headings read alike, the source gives them in different places.

Legend:
[1] = test system: H460 lung tumor cell line; assay: Methylene Blue Growth Inhibition Assay, H460; assay type: cell-based, human; settings: H460, 3 days, read-out: MeB Cell Line IC50
Protocol: (§1) II. Methylene Blue Growth Inhibition Assay
(§2) Normal Human foreskin fibroblasts (HFF) and human colon (HCT116, RKO), lung (H460), prostate (PC3), and breast tumor (MCF7) cell lines are cultured in high glucose DMEM (Life Technologies) containing 10% fetal bovine serum (FBS) at 37° C. in a humidified 10% CO2, 90% air incubator. Cells are harvested using trypsin/EDTA, counted using a haemocytometer, and plated in 100 μl of the appropriate media, at the following densities, in a 96-well tissue culture plate (Falcon 3075): HFF 5,000 cells/well, HCT116 3,000 cells/well, RKO 2,500 cells/well, H460 2,000 cells/well, PC3 8,000 cells/well, MCF7 4,000 cells/well. The next day, compounds are diluted in DMEM containing 100 μg/ml gentamicin, at twice the final required concentration, from 10 mM stock solutions in DMSO. 100 μl/well of these dilutions are added to the 100 μl of media currently on the cell plates. Medium containing 0.6% DMSO is added to control wells. Compounds diluted in DMEM are added to all cell lines. The final concentration of DMSO in all wells is 0.3%. Cells are incubated at 37° C., 10% CO2 for 3 days. Medium is removed by aspiration. Cell biomass is estimated by staining cells with 80 μl per well methylene blue (Sigma M9140, 0.5% in 50:50 ethanol:water), and incubation at room temperature for at least 30 minutes. Stain is removed, and the plates rinsed by immersion in water, and air-dried. To release stain from the cells 100 μl of solubilization solution is added (1% N-lauroyl sarcosine, Sodium salt, Sigma L5125, in PBS), and plates are left at room temperature for about 30 minutes. Optical density at 620 nm is measured on a microplate reader. Percent inhibition of cell growth is calculated relative to vehicle treated control wells. Concentration of compound that inhibits 50% of cell growth (IC50) is interpolated using nonlinear regression (Levenberg-Marquardt) and the equation, y=Vmax*(1−(x/(K+x)))+Y2, where Y2=0 and “K” is equal to the IC50.
(§3) In Table 1, +=10−>30 μM; ++=1-10 μM: +++=<1 μM.

[2] = test system: MCF7 breast tumor cell line; assay: Methylene Blue Growth Inhibition Assay, MCF7; assay type: cell-based, human; settings: MCF7, 3 days, read-out: MeB Cell Line IC50
Protocol: as §1, §2, §3

[3] = test system: Normal Human foreskin fibroblasts (HFF); assay: Methylene Blue Growth Inhibition Assay, HFF; assay type: cell-based; settings: 3 days, read-out: MeB Cell Line IC50
Protocol: as §1, §2, §3

PLK1 kinase domain = target: T1, PLK1 kinase domain (Homo sapiens, UniProt P53350); assay: Assay for Inhibition of PLK1 (SPA, 33P-ATP, His-tagged PLK kinase domain); assay type: biochemical; settings: 2 nM PLK1 kinase domain, 1 μM ATP, 1.25 hrs at 22° C.; for IC50: read-out: Average pIC50 PLK Enzyme Inhibition (converted)
T1 construct: made in house; host or cells: baculovirus infected T. ni cells
T1 sequence (P53350 21-346): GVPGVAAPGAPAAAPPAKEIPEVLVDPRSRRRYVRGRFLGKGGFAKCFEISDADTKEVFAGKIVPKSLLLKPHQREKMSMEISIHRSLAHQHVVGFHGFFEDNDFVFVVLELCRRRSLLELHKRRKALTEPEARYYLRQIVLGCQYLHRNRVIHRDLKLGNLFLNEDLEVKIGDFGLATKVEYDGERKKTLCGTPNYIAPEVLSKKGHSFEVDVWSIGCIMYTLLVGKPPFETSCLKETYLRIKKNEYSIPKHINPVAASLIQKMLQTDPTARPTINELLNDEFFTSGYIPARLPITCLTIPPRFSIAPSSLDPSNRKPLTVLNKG
Protocol: I. Assay for Inhibition of PLK1
A. Preparation of 6× N-terminal His-tagged PLK kinase domain 6× N-terminal His-tagged PLK kinase domain (amino acids 21-346 preceded by MKKGHHHHHHD (SEQ ID:NO. 1) may be prepared from baculovirus infected T. ni cells under polyhedrin promoter control. All subsequent procedures are performed at 4° C. Cells are lysed in 25 mM HEPES, 200 mM NaCl, 25 mM imidazole; pH 8.0. The homogenate is centrifuged at 14K rpm in a SLA-1500 rotor for 40 min and the supernatant filtered through a 1.2 micron filter. The supernatant is loaded onto a Nickel chelating Sepharose (Amersham Pharmacia) column and washed with 25 mM HEPES, 500 mM NaCl, 25 mM imidazole; pH 8.0. The column is then washed with a 16.6% B step where buffer B is 25 mM HEPES, 500 mM NaCl, 300 mM imidazole; pH 8.0. Protein is eluted using a 10-column volume linear gradient from 16.6% B to 100% B. Fractions were pooled using absorbance at 280 nm. PLK is concentrated using a 10 kDa molecular weight cutoff membrane and then loaded onto a Superdex 75 gel filtration (Amersham Pharmacia) column equilibrated in 25 mM HEPES, 1 mM DTT, 500 mM NaCl; pH 8.0. Protein was pooled by absorbance at 280 nm and then quality controlled using mass spectrometry and SDS-PAGE. PLK was aliquoted and stored at −80° C.
B. Enzyme activity +/− inhibitors was determined as follows: Compounds are added to the plate (1 μl in 100% DMSO). DMSO (5% final) and EDTA (62.5 mM final in 20 μL reaction) are used as controls. Reaction Mix is prepared as follows at 22° C.: • 25 mM HEPES, pH 7.2 • 15 mM MgCl2 • 1 μM ATP • 0.05 μCi/well ^33P-γ ATP (10 Ci/mMol) • 1 μM substrate peptide (Biotin-Ahx-SFNDTLDFD) SEQ ID:No. 2. • 0.15 mg/ml BSA • 1 mM DTT • 2 nM PLK1 kinase domain (added last)
Reaction Mix (20 μl) is added per well to each well immediately upon addition of enzyme and incubated 1.25 hrs. at 22° C. The enzymatic reactions are stopped with 50 μl of SPA bead/EDTA mix (50 mM EDTA, 4.0 mg/ml Streptavidin-coated SPA beads in Standard Dulbecco's PBS (without Mg^2+ and Ca^2+), 50 μM ATP). Plates are sealed with clear plastic seals, spun at 500×g for 1 min. or settled overnight, and plates counted in Packard TopCount for 30 seconds/well.
In Table 1, +=pIC50<5; ++=pIC50 5-7; +++=pIC50>7.

[4] = test system: HCT116 colon tumor cell line; assay: Methylene Blue Growth Inhibition Assay, HCT116; assay type: cell-based, human; settings: HCT116, 3 days, read-out: MeB Cell Line IC50
Protocol: as §1, §2, §3

[5] = test system: PC3 prostate tumor cell line; assay: Methylene Blue Growth Inhibition Assay, PC3; assay type: cell-based, human; settings: PC3, 3 days, read-out: MeB Cell Line IC50
Protocol: as §1, §2, §3

[6] = test system: RKO colon tumor cell line; assay: Methylene Blue Growth Inhibition Assay, RKO; assay type: cell-based, human; settings: 3 days, read-out: MeB Cell Line IC50
Protocol: as §1, §2, §3

Row | IC50 ([1]; Homo sapiens, NCI-H460, 72 h) [µM] | IC50 ([2]; Homo sapiens, 72 h) [µM] | IC50 (PLK1 kinase domain) [µM] | IC50 ([4]; Homo sapiens, HCT-116, 72 h) [µM] | IC50 ([5]; Homo sapiens, 72 h) [µM] | IC50 ([6]; Homo sapiens, 72 h) [µM] | IC50 [1] [µM] | IC50 [2] [µM] | Average pIC50 PLK Enzyme Inhibition (PLK1 kinase domain) | IC50 [4] [µM] | IC50 [5] [µM] | IC50 [6] [µM] | Compound | IC50 ([3]; Homo sapiens, 72 h) [µM] | IC50 [3] [µM]
1 | > 10 | > 10 | 0.1 to 10 | > 10 | > 10 | > 10 | – | – | – | – | – | – | Cc1cc2ncn(-c3nc(OCc4ccccc4C(F)(F)F)c(C(N)=O)s3)c2cc1C [Example 5, 2-(5,6-Dimethyl-1H-benzimidazol-1-yl)-4-({[2-(trifluoromethyl)phenyl]methyl}oxy)-1,3-thiazole-5-carboxamide] | > 10 | –
2 | > 10 | > 10 | 0.1 to 10 | > 10 | > 10 | > 10 | – | – | – | – | – | – | NC(=O)c1sc(-n2cnc3ccc(F)cc32)nc1OCc1ccccc1C(F)(F)F [Example 4, 2-(6-Fluoro-1H-benzimidazol-1-yl)-4-({[2-(trifluoromethyl)phenyl]methyl}oxy)-1,3-thiazole-5-carboxamide] | > 10 | –
3 | 1 to 10 | 1 to 10 | < 0.1 | 1 to 10 | 1 to 10 | 1 to 10 | – | – | – | – | – | – | COc1cc2ncn(-c3nc(OCc4ccccc4C(F)(F)F)c(C(N)=O)s3)c2cc1OC [Example 6, 2-[5,6-Bis(methyloxy)-1H-benzimidazol-1-yl]-4-({[2-(trifluoromethyl)phenyl]-methyl}oxy)-1,3-thiazole-5-carboxamide] | > 10 | –
4 | – | – | – | – | – | – | > 10 | > 10 | +++ (+++=pIC50>7) | > 10 | > 10 | > 10 | 2-(6-Methoxy-1H-benzimidazol-1-yl)-4-({[2-(trifluoromethyl)phenyl]methyl}oxy)-1,3-thiazole-5-carboxamide and 2-(5-methoxy-1H-benzimidazol-1-yl)-4-({[2-(trifluoromethyl)phenyl]methyl}oxy)-1,3-thiazole-5-carboxamide [Example 3] | – | > 10
5 | > 10 | 1 to 10 | < 0.1 | > 10 | > 10 | 1 to 10 | – | – | – | – | – | – | NC(=O)c1sc(-n2cnc3ccc(Cl)cc32)nc1OCc1ccccc1C(F)(F)F [Example 2A, 2-(6-Chloro-1H-benzimidazol-1-yl)-4-({[2-(trifluoromethyl)phenyl]methyl}oxy)-1,3-thiazole-5-carboxamide] | > 10 | –
6 | > 10 | > 10 | 0.1 to 10 | > 10 | > 10 | > 10 | – | – | – | – | – | – | NC(=O)c1sc(-n2cnc3cc(Cl)ccc32)nc1OCc1ccccc1C(F)(F)F [Example 2B, 2-(5-chloro-1H-benzimidazol-1-yl)-4-({[2-(trifluoromethyl)phenyl]methyl}oxy)-1,3-thiazole-5-carboxamide] | > 10 | –
7 | > 10 | > 10 | < 0.1 | > 10 | > 10 | > 10 | – | – | – | – | – | – | NC(=O)c1sc(-n2cnc3ccccc32)nc1OCc1ccccc1C(F)(F)F [Example 1, 2-(1H-Benzimidazol-1-yl)-4-({[2-(trifluoromethyl)phenyl]methyl}-oxy)-1,3-thiazole-5-carboxamide] | > 10 | –
